Experimental data taken from patent US20230266302A1, “SYNTHESIS AND USE OF N-BENZYL SULFONAMIDES” (THE UNIVERSITY OF TULSA, priority 2020, published 2023).

Tested on: HDF (normal cells)
Assay: ATP level assay (CellTiter-Glo), percent of control
Format: cell-based
Conditions: 2 h; compound alone, 100 uM, two hour incubation, control DMSO; read-out: POC (percent of control) HDF

Row | Compound | activity at 100 µM
1 | COc1ncccc1CNS(=O)(=O)c1ccc(C)cc1 [Compound 12, N-[(2-methoxypyridin-3-yl)methyl]-4-methylbenzenesulfonamide] | 77.8%

Same assay, conditions: compound 100 uM + 2DG (about 10-20 mM), two hour incubation

Row | Compound | POC (percent of control) HDF
2 | COc1ncccc1CNS(=O)(=O)c1ccc(C)cc1 [Compound 12, N-[(2-methoxypyridin-3-yl)methyl]-4-methylbenzenesulfonamide] | 90.9% of control

Same assay, conditions: compound 100 uM + rotenone (approximately 1.25 μM), two hour incubation

Row | Compound | POC (percent of control) HDF
3 | COc1ncccc1CNS(=O)(=O)c1ccc(C)cc1 [Compound 12, N-[(2-methoxypyridin-3-yl)methyl]-4-methylbenzenesulfonamide] | 70.4% of control

Tested on: T47D (breast cancer)
Assay: as above
Format: cell-based
Conditions: Homo sapiens, T47D, 2 h; compound alone, 100 uM, two hour incubation, control DMSO; read-out: POC (percent of control) T47D

Row | Compound | activity at 100 µM
4 | COc1ncccc1CNS(=O)(=O)c1ccc(C)cc1 [Compound 12, N-[(2-methoxypyridin-3-yl)methyl]-4-methylbenzenesulfonamide] | 59.8%

Same assay, conditions: compound 100 uM + 2DG (about 10-20 mM), two hour incubation

Row | Compound | POC (percent of control) T47D
5 | COc1ncccc1CNS(=O)(=O)c1ccc(C)cc1 [Compound 12, N-[(2-methoxypyridin-3-yl)methyl]-4-methylbenzenesulfonamide] | 58.1% of control

Same assay, conditions: compound 100 uM + rotenone (approximately 1.25 μM), two hour incubation

Row | Compound | POC (percent of control) T47D
6 | COc1ncccc1CNS(=O)(=O)c1ccc(C)cc1 [Compound 12, N-[(2-methoxypyridin-3-yl)methyl]-4-methylbenzenesulfonamide] | 95.2% of control

Tested on: HeLa (cervical cancer)
Assay: as above
Format: cell-based
Conditions: Homo sapiens, HeLa, 2 h; compound alone, 100 uM, two hour incubation, control DMSO; read-out: POC (percent of control) HeLa

Row | Compound | activity at 100 µM
7 | COc1ncccc1CNS(=O)(=O)c1ccc(C)cc1 [Compound 12, N-[(2-methoxypyridin-3-yl)methyl]-4-methylbenzenesulfonamide] | 98%

Same assay, conditions: compound 100 uM + 2DG (about 10-20 mM), two hour incubation

Row | Compound | POC (percent of control) HeLa
8 | COc1ncccc1CNS(=O)(=O)c1ccc(C)cc1 [Compound 12, N-[(2-methoxypyridin-3-yl)methyl]-4-methylbenzenesulfonamide] | 78.5% of control

Same assay, conditions: compound 100 uM + rotenone (approximately 1.25 μM), two hour incubation

Row | Compound | POC (percent of control) HeLa
9 | COc1ncccc1CNS(=O)(=O)c1ccc(C)cc1 [Compound 12, N-[(2-methoxypyridin-3-yl)methyl]-4-methylbenzenesulfonamide] | 87.6% of control

Tested on: NCI-H196 (lung cancer)
Assay: as above
Format: cell-based
Conditions: NCI-H196, 2 h; compound alone, 100 uM, two hour incubation, control DMSO; read-out: POC (percent of control) NCI-H196

Row | Compound | activity at 100 µM
10 | COc1ncccc1CNS(=O)(=O)c1ccc(C)cc1 [Compound 12, N-[(2-methoxypyridin-3-yl)methyl]-4-methylbenzenesulfonamide] | 83.5%

Same assay, conditions: compound 100 uM + 2DG (about 10-20 mM), two hour incubation

Row | Compound | POC (percent of control) NCI-H196
11 | COc1ncccc1CNS(=O)(=O)c1ccc(C)cc1 [Compound 12, N-[(2-methoxypyridin-3-yl)methyl]-4-methylbenzenesulfonamide] | 117% of control

Same assay, conditions: compound 100 uM + rotenone (approximately 1.25 μM), two hour incubation

Row | Compound | POC (percent of control) NCI-H196
12 | COc1ncccc1CNS(=O)(=O)c1ccc(C)cc1 [Compound 12, N-[(2-methoxypyridin-3-yl)methyl]-4-methylbenzenesulfonamide] | 81.8% of control

Tested on: H293 (kidney cancer)
Assay: as above
Format: cell-based
Conditions: 2 h; compound alone, 100 uM, two hour incubation, control DMSO; read-out: POC (percent of control) H293

Row | Compound | activity at 100 µM
13 | COc1ncccc1CNS(=O)(=O)c1ccc(C)cc1 [Compound 12, N-[(2-methoxypyridin-3-yl)methyl]-4-methylbenzenesulfonamide] | 94.4%

Same assay, conditions: compound 100 uM + 2DG (about 10-20 mM), two hour incubation

Row | Compound | POC (percent of control) H293
14 | COc1ncccc1CNS(=O)(=O)c1ccc(C)cc1 [Compound 12, N-[(2-methoxypyridin-3-yl)methyl]-4-methylbenzenesulfonamide] | 85% of control

Same assay, conditions: compound 100 uM + rotenone (approximately 1.25 μM), two hour incubation

Row | Compound | POC (percent of control) H293
15 | COc1ncccc1CNS(=O)(=O)c1ccc(C)cc1 [Compound 12, N-[(2-methoxypyridin-3-yl)methyl]-4-methylbenzenesulfonamide] | 74.9% of control

Tested on: SkBr3 (breast cancer)
Assay: as above
Format: cell-based
Conditions: Homo sapiens, SK-BR-3, 2 h; compound alone, 100 uM, two hour incubation, control DMSO; read-out: POC (percent of control) SkBr3

Row | Compound | activity at 100 µM
16 | COc1ncccc1CNS(=O)(=O)c1ccc(C)cc1 [Compound 12, N-[(2-methoxypyridin-3-yl)methyl]-4-methylbenzenesulfonamide] | 91.6%

Same assay, conditions: compound 100 uM + 2DG (about 10-20 mM), two hour incubation

Row | Compound | POC (percent of control) SkBr3
17 | COc1ncccc1CNS(=O)(=O)c1ccc(C)cc1 [Compound 12, N-[(2-methoxypyridin-3-yl)methyl]-4-methylbenzenesulfonamide] | 73.5% of control

Same assay, conditions: compound 100 uM + rotenone (approximately 1.25 μM), two hour incubation

Row | Compound | POC (percent of control) SkBr3
18 | COc1ncccc1CNS(=O)(=O)c1ccc(C)cc1 [Compound 12, N-[(2-methoxypyridin-3-yl)methyl]-4-methylbenzenesulfonamide] | 85.1% of control

Tested on: MCF7 (breast cancer)
Assay: as above
Format: cell-based
Conditions: Homo sapiens, MCF7, 2 h; compound alone, 100 uM, two hour incubation, control DMSO; read-out: POC (percent of control) MCF7

Row | Compound | activity at 100 µM
19 | COc1ncccc1CNS(=O)(=O)c1ccc(C)cc1 [Compound 12, N-[(2-methoxypyridin-3-yl)methyl]-4-methylbenzenesulfonamide] | 97.3%

Same assay, conditions: compound 100 uM + 2DG (about 10-20 mM), two hour incubation

Row | Compound | POC (percent of control) MCF7
20 | COc1ncccc1CNS(=O)(=O)c1ccc(C)cc1 [Compound 12, N-[(2-methoxypyridin-3-yl)methyl]-4-methylbenzenesulfonamide] | 90.8% of control

Same assay, conditions: compound 100 uM + rotenone (approximately 1.25 μM), two hour incubation

Row | Compound | POC (percent of control) MCF7
21 | COc1ncccc1CNS(=O)(=O)c1ccc(C)cc1 [Compound 12, N-[(2-methoxypyridin-3-yl)methyl]-4-methylbenzenesulfonamide] | 92.1% of control

Tested on: BxPC3 (pancreatic cancer)
Assay: as above
Format: cell-based
Conditions: Homo sapiens, BXPC-3, 2 h; compound alone, 100 uM, two hour incubation, control DMSO; read-out: POC (percent of control) BxPC3

Row | Compound | activity at 100 µM
22 | COc1ncccc1CNS(=O)(=O)c1ccc(C)cc1 [Compound 12, N-[(2-methoxypyridin-3-yl)methyl]-4-methylbenzenesulfonamide] | 79.8%

Same assay, conditions: compound 100 uM + 2DG (about 10-20 mM), two hour incubation

Row | Compound | POC (percent of control) BxPC3
23 | COc1ncccc1CNS(=O)(=O)c1ccc(C)cc1 [Compound 12, N-[(2-methoxypyridin-3-yl)methyl]-4-methylbenzenesulfonamide] | 57% of control

Same assay, conditions: compound 100 uM + rotenone (approximately 1.25 μM), two hour incubation

Row | Compound | POC (percent of control) BxPC3
24 | COc1ncccc1CNS(=O)(=O)c1ccc(C)cc1 [Compound 12, N-[(2-methoxypyridin-3-yl)methyl]-4-methylbenzenesulfonamide] | 61% of control

Tested on: MCF10A (non-cancerous breast)
Assay: as above
Format: cell-based
Conditions: Homo sapiens, MCF-10A, 2 h; compound alone, 100 uM, two hour incubation, control DMSO; read-out: POC (percent of control) MCF10A

Row | Compound | activity at 100 µM
25 | COc1ncccc1CNS(=O)(=O)c1ccc(C)cc1 [Compound 12, N-[(2-methoxypyridin-3-yl)methyl]-4-methylbenzenesulfonamide] | 98.6%

Same assay, conditions: compound 100 uM + 2DG (about 10-20 mM), two hour incubation

Row | Compound | POC (percent of control) MCF10A
26 | COc1ncccc1CNS(=O)(=O)c1ccc(C)cc1 [Compound 12, N-[(2-methoxypyridin-3-yl)methyl]-4-methylbenzenesulfonamide] | 88.1% of control

Same assay, conditions: compound 100 uM + rotenone (approximately 1.25 μM), two hour incubation

Row | Compound | POC (percent of control) MCF10A
27 | COc1ncccc1CNS(=O)(=O)c1ccc(C)cc1 [Compound 12, N-[(2-methoxypyridin-3-yl)methyl]-4-methylbenzenesulfonamide] | 86.1% of control

Tested on: MDA-MB (breast cancer)
Assay: as above
Format: cell-based
Conditions: 2 h; compound alone, 100 uM, two hour incubation, control DMSO; read-out: POC (percent of control) MDA-MB

Row | Compound | activity at 100 µM
28 | COc1ncccc1CNS(=O)(=O)c1ccc(C)cc1 [Compound 12, N-[(2-methoxypyridin-3-yl)methyl]-4-methylbenzenesulfonamide] | 87.2%

Same assay, conditions: compound 100 uM + 2DG (about 10-20 mM), two hour incubation

Row | Compound | POC (percent of control) MDA-MB
29 | COc1ncccc1CNS(=O)(=O)c1ccc(C)cc1 [Compound 12, N-[(2-methoxypyridin-3-yl)methyl]-4-methylbenzenesulfonamide] | 83.9% of control

Same assay, conditions: compound 100 uM + rotenone (approximately 1.25 μM), two hour incubation

Row | Compound | POC (percent of control) MDA-MB
30 | COc1ncccc1CNS(=O)(=O)c1ccc(C)cc1 [Compound 12, N-[(2-methoxypyridin-3-yl)methyl]-4-methylbenzenesulfonamide] | 105.7% of control

Tested on: PC3 (prostate cancer)
Assay: as above
Format: cell-based
Conditions: 2 h; compound alone, 100 uM, two hour incubation, control DMSO; read-out: POC (percent of control) PC3

Row | Compound | activity at 100 µM
31 | COc1ncccc1CNS(=O)(=O)c1ccc(C)cc1 [Compound 12, N-[(2-methoxypyridin-3-yl)methyl]-4-methylbenzenesulfonamide] | 82.1%

Same assay, conditions: compound 100 uM + 2DG (about 10-20 mM), two hour incubation

Row | Compound | POC (percent of control) PC3
32 | COc1ncccc1CNS(=O)(=O)c1ccc(C)cc1 [Compound 12, N-[(2-methoxypyridin-3-yl)methyl]-4-methylbenzenesulfonamide] | 89.9% of control

Same assay, conditions: compound 100 uM + rotenone (approximately 1.25 μM), two hour incubation

Row | Compound | POC (percent of control) PC3
33 | COc1ncccc1CNS(=O)(=O)c1ccc(C)cc1 [Compound 12, N-[(2-methoxypyridin-3-yl)methyl]-4-methylbenzenesulfonamide] | 80.3% of control
